In a melting point compilation (Tetko et al.; mined from patent text by program, amines drawn as free bases though some values may be those of a salt) one finds melting point data, which are given here for 90 compounds.

A word on the melting point: it is the temperature, or range, at which the solid turns liquid. As to `CCOc1ccc(OCc2ccc(OCc3nc(-c4ccccc4)oc3C)cc2)c(CC(=O)O)c1`, the melting point lay within 122 to 123 °C.

For the compound `COc1cc(CC(C)(C)C(=O)O)cc2c1OC(C)(C)C2`, the melting point is 88 to 89 °C.

With `CC(=O)Nc1ccc(OC(C)(C)C(=O)c2ccccc2)cc1`, the melting point lay within 141 to 142 °C.

Compound `CN1C(O)=C(C(=O)Nc2ccc(Br)cc2)c2cscc2S1(=O)=O` had a melting point of 138 to 140 °C.

`CC(=O)N1CCc2ccc(Cl)c(Cl)c2C1`: the melting point was 99.5 to 100 °C.

`ClCCCOc1cccc2cccnc12` showed a melting point of 69 to 71 °C.

In turn, `O=[N+]([O-])c1cccc(/C=C/c2nc(C3CCCCCC3)cs2)c1` yielded a melting point of 60 °C.

Turning to `COc1cc2ncnc(N3CCN(C(=O)NCc4ccco4)CC3)c2cc1OC`, the melting point was 168 to 170 °C.

Turning to `CC(=O)OCCN1C(=O)C(NC(=O)Nc2cccc(-c3nnn[nH]3)c2)N=C(C2CCCCC2)c2cccc(C)c21` (stereo not given), the melting point was 165 to 168 °C.

On to `CN(CCOc1ccccc1)[C@H]1CC[C@H](c2ccc(OCc3ccccc3)cc2)CC1`, for which the melting point was 67 to 69 °C.

As for `Cn1nc(Cl)cc(Br)c1=O`, the melting point was in the range of 107 to 108 °C.

With `COCCN(CC1=CCC(N)(Oc2ccccc2)C=C1)C(=O)C(Cl)Cl` (stereo not given), the melting point was 100 to 102 °C.

Consider `CCOC(=O)c1c[nH]c2c(O)c(OC)ccc2c1=O`, for which the melting point lay in the range of 233 to 236 °C.

Compound `CCOP(=S)(OCC)Oc1nsc(N(C)C)n1` registered a melting point of 48 °C.

With `CN(C(=O)COc1onc(C(F)(F)F)c1-c1ccccc1)c1ccccc1`, the melting point lay within 93 to 94 °C.

For `CCOC(=O)CN(CP(=O)(OSc1cc(Cl)ccc1Cl)OSc1cc(Cl)ccc1Cl)C(=O)C(F)(F)F`, the melting point is 77 to 80 °C.

Compound `Cc1cc(C)c(-n2ccc3c(Cl)nnc(Cl)c32)c(C)c1` returned a melting point of 169 to 170 °C.

`O=Cc1ccc(OCC(F)(F)F)c([N+](=O)[O-])c1` had a melting point of 126 to 127 °C.

In turn, `CCOC(=O)C(=C1CCCN1C)c1cc(OC)c(OC)c(OC)c1` gave a melting point of 115 to 116 °C.

In turn, `Nc1ccccc1NC(=O)c1ccc(CNC(=O)COc2cccnc2)cc1` displayed a melting point of 154 to 155 °C.

Compound `CS(=O)(=O)c1ccc(-c2cnn(-c3ccc(Cl)c(F)c3)c(=O)c2-c2ccc(F)cc2)cc1` returned a melting point of 102 to 110 °C.

`FC(F)(F)c1cccc(-c2ccnc3ncnn23)c1`: the melting point lay within 158 to 160 °C.

As for `CCCC(=O)c1cnc2c(C3CO3)cccc2c1Nc1ccccc1C` (stereo not given), the melting point lay within 114 to 116 °C.

Consider `Cc1cn(C(C(=O)N(C)C)c2ccccc2)nc1-c1ccccc1` (stereo not given), for which the melting point lay in the range of 136 to 138 °C.

In turn, `CCCc1c(O)c(O)c(C(=O)O)c2ccc(C)cc12` yielded a melting point of 159 to 160 °C.

Compound `Nc1ccc(S(=O)(=O)c2cc(-c3ccsc3)nc(N3CCCC3)c2)cc1` gave a melting point of 260 °C.

In turn, `CC(=Cc1ccc(F)cc1)c1ccc2c(c1)C(C)(C)CCC2(C)C` yielded a melting point of 99 to 101 °C.

In the case of `CN1Cc2nnnn2-c2ccccc21`, the melting point is 107 to 110 °C.

On to `Cc1c(C)c2c(c(C)c1NC(=O)CC(C)(C)C)C(c1ccccc1)C(C)(C)O2` (stereo not given), for which the melting point lay within 214 to 215 °C.

In the case of `N/C(=C1/Sc2ccccc2C1=O)c1ccccc1F`, the melting point was 156 to 158 °C.

Consider `O=C(O)c1ccc([N+](=O)[O-])c(S(=O)(=O)CCO)c1`, for which the melting point lay in the range of 176 to 177 °C.

In the case of `CC(C)C(C)(C#N)N1C(=O)c2ccc3ccn(C)c3c2C1=O` (stereo not given), the melting point fell in the range of 134 to 138 °C.

For the compound `O=C1CCC(c2ccc(CO)cc2)CC1`, the melting point lay in the range of 58 to 60 °C.

With `O=C(Nc1nc(-c2ccco2)c(C(=O)C2CCOCC2)s1)c1ccc(F)cc1`, the melting point lay within 131 to 132 °C.

As for `CS(=O)(=O)c1ccc(-c2cc(C(N)=O)nn2-c2ccc(C(=O)O)cc2)cc1`, the melting point is 292 to 293 °C.

With `CCCc1c(OCCCOc2c(C(C)=O)ccc(OCCCC(=O)O)c2CCC)ccc(C(C)=O)c1O`, the melting point is 96 to 99 °C.

`Cc1nc2c3c(c(C(N)=O)cc2n1C)CCC1(Cc2ccccc2C1)N3`: the melting point was 272 to 273 °C.

As to `CCOC(=O)C(CC(C)C)NC(=O)C(Cc1ccccc1)NC(=O)CNC(=O)CNC(=O)C(Cc1ccc(OCc2ccccc2)cc1)NC(=O)OC(C)(C)C` (stereo not given), the melting point lay in the range of 149 to 152 °C.

As for `COc1cc(N)c(Cl)cc1C(=O)NC1CCN(CC2CCN(C(C)C(C)=O)CC2)CC1` (stereo not given), the melting point fell in the range of 268 to 270 °C.

As to `COc1ccc(N2C(=O)C(O)=C(C(=O)c3ccc(C(C)C)cc3)C2c2ccc(OC(F)(F)F)cc2)nn1` (stereo not given), the melting point came out at 271 °C.

In turn, `CCOCc1nc2c(N)nc(C)c(C)c2n1C1(OC)CCCCC1` registered a melting point of 172 to 173 °C.

Consider `NCCOc1ccc(/C(=C(\c2ccccc2)C(F)(F)F)c2ccccc2)cc1`, for which the melting point lay in the range of 71 to 76 °C.

In the case of `CCc1cc(C(=O)OC)nn1C`, the melting point lay within 188 to 191 °C.

Take `CC(C)NC(=O)CCCCc1cc(O)c(O)c([N+](=O)[O-])c1`: the melting point fell in the range of 113 to 115 °C.

For `O=C1Nc2c(ccc3ccccc23)SC1c1ccc(Cl)cc1` (stereo not given), the melting point fell in the range of 236 to 238 °C.

Consider `CCCC(=O)NC1=CC(=O)c2ccc(C)nc2C1=O`, for which the melting point fell in the range of 188 to 189 °C.

In turn, `CC(=O)NC1C(OCc2ccccc2)OC(COCc2ccccc2)C(OCc2ccccc2)C1OCC(O)CO` (stereo not given) showed a melting point of 165 to 166 °C.

Take `CC12C=CC(=O)C=C1CCC1C2C(=O)CC2(C)C(C(=O)CO)CCC12` (stereo not given): the melting point lay in the range of 203 to 206 °C.

In the case of `CCCCCCCCCc1ccc(O)c(C=NO)c1`, the melting point was 170 °C.

`CC[C@@]1(C=O)CCCN(CCc2c[nH]c3ccc(F)cc23)C1=O` returned a melting point of 116 °C.

`O=S1(=O)c2cccc3cccc(c23)N1CCCN1CCC(c2ccc(Cl)cc2)CC1` displayed a melting point of 111 °C.

Take `Cc1cccc2c1CCC2NC(=S)NCCO` (stereo not given): the melting point lay within 90 to 93 °C.

`COc1ccc2c(c1)N1CCOCC1C[N+]([O-])=C2c1ccco1` (stereo not given): the melting point was in the range of 183 to 186 °C.

On to `CC1OC(=O)C2C1C1CCC2(OC(=O)C(C)(C)C)O1` (stereo not given), for which the melting point was in the range of 114 to 115 °C.

The compound `CN1CCC(c2c[nH]c3ccc(NC(=O)c4cc5ccccc5s4)nc23)CC1` returned a melting point of 202 to 204 °C.

The compound `NCCNCCCNCCN1C(=O)c2cccc3cc4ccccc4c(c23)C1=O` gave a melting point of 150 °C.

The compound `Cc1nc(N2CCC(Cc3ccc(OC(F)(F)F)cc3)C2=O)sc1C(=O)NCc1cccnc1` (stereo not given) yielded a melting point of 158 to 160 °C.

In turn, `Cc1cccc(N2CCC(N)=N2)c1` came in with a melting point of 119 to 120 °C.

In turn, `CC(NC(=O)OC(C)(C)C)c1cc(F)c(N)c(I)c1` (stereo not given) came in with a melting point of 88 to 90 °C.

The compound `COC(=O)c1cc(C(C)O)c(C(F)(F)F)cc1NC(C)=O` (stereo not given) yielded a melting point of 120 to 122 °C.

Turning to `Cc1cccc(N2CCN(CCc3ccc(NC(=O)NCCCCl)cc3)CC2)c1`, the melting point was 168 °C.

Turning to `OCC1Oc2ccccc2OC1CO` (stereo not given), the melting point was in the range of 119 to 120 °C.

Consider `Cc1cc2c(c(C)c1O)OC[C@@H](N1CCC(O)(c3ccc(F)cc3)CC1)[C@H]2O` (relative stereo), for which the melting point lay within 226 to 227 °C.

As for `CN1CC[C@H](c2ccccc2)[C@H](O)C1` (relative stereo), the melting point lay within 95 to 97 °C.

Turning to `CCCC(=O)OCc1ccc2oc(=O)c(C(=O)Oc3cncc(Cl)c3)cc2c1`, the melting point lay within 146 to 148 °C.

`O=C1CN(C(=O)OCc2ccccc2)CC(=O)O1` returned a melting point of 133 to 137 °C.

`CCOC(=O)c1cccc2c1Cc1c-2[nH]c2ccc(Cl)cc12` gave a melting point of 202 to 204 °C.

Regarding `CCOC(=O)C=C(C)C=CC=C(C)C=Cc1c(C)sc(C)c1C`, the melting point fell in the range of 88 to 89 °C.

`Fc1cc(F)c2[nH]c3c(c2c1)CC(N1CCCCC1)CC3` (stereo not given): the melting point is more than 290 °C.

For the compound `O=C(O)c1ccc(CN2C(=O)C3CCCC3=Nc3ccc(Cl)cc32)cc1` (stereo not given), the melting point fell in the range of 251 to 255 °C.

Regarding `COc1ccc(OC)c2c1C(=O)c1ccc(C)cc1C2OC` (stereo not given), the melting point is 177 to 179 °C.

As for `CC(C)(C)c1cc(CCC(=O)ON(Cc2ccccc2)Cc2ccccc2)cc(C(C)(C)C)c1O`, the melting point lay within 93 to 95.5 °C.

As to `N#Cc1cccc2c1OCC2`, the melting point lay in the range of 54.5 to 56 °C.

The compound `COc1cc2ncnc(N3CCC(N)CC3)c2cc1OC` had a melting point of 133 to 135 °C.

With `CC1=Cc2ccc(Cl)cc2C(c2ccc(N)c(C)c2)=NN1C(=O)NC1CC1`, the melting point lay in the range of 233 to 236 °C.

`Cc1cccc(CC(=O)c2ccnc(-c3ccc(N4CCOCC4)cc3)c2)n1` registered a melting point of 114 °C.

With `CN(C(=O)COc1cc(-c2ccccc2)nc2ccccc12)c1ccccc1`, the melting point was 150 °C.

Regarding `N#CCCc1cccc(-c2ccc3cnc(Nc4ccc5c(c4)CCC(N4CCOCC4)CC5)nn23)c1` (stereo not given), the melting point lay within 184 to 186 °C.

`CCOC(=O)c1c(C(F)(F)F)nc2ccccc2c1O` registered a melting point of 192 °C.

`O=C1c2ccccc2C(O)N1CCCSc1ccncc1` (stereo not given) yielded a melting point of 132 to 134 °C.

`Cc1cc(C)c(C)c(C(=O)Cn2ccnc2)c1C` showed a melting point of 176 to 178 °C.

`CNC(=O)C(c1ccc(F)cc1)c1ccc(F)cc1`: the melting point was 179 to 180 °C.

Consider `COc1ccc(-n2c3ccccc3c3cc(C(C#N)=C(C#N)c4cc(C(F)(F)F)cc(C(F)(F)F)c4)ccc32)cc1`, for which the melting point fell in the range of 170 to 172 °C.

For `CS/C=C(/C)n1c(=O)n(Cc2cc(C(F)(F)F)cc(C(F)(F)F)c2)c2ccccc21`, the melting point was determined as 148 °C.

On to `CC(NC(=O)Cc1cc(F)cc(F)c1)C(=O)C1(N)N=C(c2ccccc2F)c2ccccc2N(C)C1=O` (stereo not given), for which the melting point lay in the range of 185 to 188 °C.

On to `Nc1ncc(-c2ccc(F)c(Cl)c2)nc1C(=O)Nc1cccnc1`, for which the melting point was 236 to 238 °C.

For the compound `CN(C)c1ccc2c(c1)C(=O)N(c1ccc3ccsc3c1)C2`, the melting point lay within 195 to 197 °C.

On to `Cc1nc2cc(S(=O)(=O)n3c(CCCC(=O)O)cc4nc(Cl)ccc43)ccc2s1`, for which the melting point was found to be 173 °C.

With `CCc1nnc2c(O)nc3cc(Cl)ccc3n12`, the melting point was more than 300 °C.

Turning to `CCOC(=O)C1CN(C(=O)OCc2ccccc2)CC1=O` (stereo not given), the melting point was 56.6 to 59.7 °C.
